The source of these data is patent US5681800A, “Biodegradable branched synthetic ester base stocks and lubricants formed therefrom” (priority 1995, dated 1997).

Data set [1] in a line: Kinematic viscosity (ASTM D-445). The class given is physicochemical. The method, then: (§1) The properties listed in Tables 1 and 2 were determined as follows. Pour Point was determined using ASTM # D-97. Brookfield Viscosity at -25° C. was determined using ASTM # D-2983. Kinematic viscosity (@ 40 and 100° C.) was determined using ASTM # D-445. Viscosity index (VI) was determined using ASTM # D-2270. Biodegradation was determined using the Modified Sturm test (OECD Test No. 301B). Solubility with dispersant was determined by blending the desired ratios and looking for haze, cloudiness, two-phases, etc. Engine wear was determined using the NMMA Yamaha CE50S Lubricity test. Oxidation induction time was determined using a high pressure differential scanning calorimeter (HPDSC) having isothermal/isobaric conditions of 220° C. and 500 psi (3.445 MPa) air, respectively. Aquatic toxicity was determined using the Dispersion Aquatic Toxicity test. The acid number was determined using ASTM # D-664. The hydroxyl number of the respective samples was determined by infrared spectroscopy.

A short description of data set [2]: Brookfield Viscosity at -25° C. (ASTM D-2983). It counts as physicochemical. The method, then:
as §1

Another data set in a line: Pour Point (ASTM D-97). It counts as physicochemical. The method, then:
as §1

For data set [3] the following is noted: background; cited from earlier work.
A short description of data set [4]: Viscosity index (ASTM D-2270). It counts as physicochemical. As for the experimental part: as §1
The next data set in a line: Acid number (ASTM D-664). The class given is physicochemical. As for the experimental part: as §1
Data set [5] in a line: Oxidation induction time by HPDSC. It counts as physicochemical. Particulars: 220° C., 500 psi air.
Description: *Oxidation Induction Time is the amount of time (in minutes) for a
molecule to oxidatively decompose under a particular set of conditions
using a high pressure differential scanning calorimeter (HPDSC).
The conditions used to evaluate these molecules were: 220° C.

In the case of `CCCCCCCCCCCOC(=O)CCCCC(=O)OCCCCCCCCCCC` [Di-undecyladipate], in data set [1], the “Vis. @ 40° C.” value was 13.92 cSt and the “Vis. @ 100° C.” value was found to be 2.80 cSt. In data set [2], the “Vis @ -25° C.” value was “solid”. Besides, the “Pour Point” value in “Pour Point (ASTM D-97)” was “+21 °C”.

Regarding `CCCCCCCCCC(=O)OCC(COC(=O)CCCCCCCCC)(COC(=O)CCCCCCCCC)COC(=O)CCCCCCCCC` [ester of pentaerythritol and n-C10 acid], in data set [3], the “viscosity at 40° C.” value was “about 38.6 cSt”.

Take “triester of trimethylolpropane and isostearic acid [TMP/iC18]”: the “Viscosity Index” value in data set [4] is reported as 147. For the same compound, in data set [1], the “Vis. @ 40° C.” value was found to be 78.34 cSt and the “Vis. @ 100° C.” value is given as 11.94 cSt. In the data set “Acid number (ASTM D-664)”, the “Acid Number” value is recorded as 1.9 mgKOH/g. Moreover, in data set [2] (Tables 2 and 4), the “-25° C. Viscosity” value was 358,000 cps. Besides, in data set [5], the “Oxidation Induction Time” value came out at 4.29 min. For the same compound, the “Pour Point” value in the data set “Pour Point (ASTM D-97)” is -20 °C.
